Measured values: US20030195350A1, “Individualization of therapy with antiviral agents” (priority 2001, published 2003)
Read-outs that look alike come from different tables or passages of the source. Marks after values point to notes of the source that are not given here.

Tests used:
HIV-1 = settings: cited from earlier work
[1] = in vivo; cited from earlier work
[2] = cited from earlier work; for AUC (mean±SD): single 600 mg dose, non-fasting
[3] = in vivo; cited from earlier work; remark: listed apart in the source
HIV isolates = settings: cited from earlier work; for decrease in susceptibility in vitro: HIV isolates from individuals during ritonavir therapy vs matched baseline isolates
HIV = settings: cited from earlier work
1X-Ab = test: Competitive antigen ELISA, cross-reactivity of 1X-Ab; format: binding, rabbit; settings: 0 = absence of inhibition or inhibition no higher than 40% at 5 × 10^−3 M
Protocol: (§1) Buffers and water without additives are filtered through millipore filters and kept for 1 week. BSA, antibodies, Tween™ 20 and horse radish peroxidase conjugates are added to these buffers and water just prior to use. Urine samples are usually collected 4 hours after drinking a cup of coffee (instant or brewed with approximately 100 mg of caffeine per cup) and stored at −80° C. The urine samples are diluted 10 times with sodium phosphate buffer (620 mosm, pH 7.50) and are subsequently diluted with water to give concentrations of AAMU and 1X no higher than 3×10^−6 M in the ELISA. All the pipettings are done with an eight-channel pipette, except those of the antibody and sample solutions. Starting with the last well, 100 μL of a carbonate buffer (100 mM, pH 9.6) containing 2.5 μg mL^−1 antibodies are added to each well. After 90 min. at room temperature, the wells are washed three times with […] of TPB: isotonic sodium phosphate buffer (310 mosm, pH 7.50) containing 0.05% Tween™ 20.
(§2) After the initial wash, unoccupied sites are blocked by incubation for 90 min. at room temperature with 100 μL TBP containing 3% BSA. The wells are washed four times with 100 μL TPB. […] The microplate is gently shaken with an orbital shaker at room temperature for 3-4 hours. The wells are washed three times with 100 μL TPB containing 1% BSA and three times with water containing 0.05% Tween™ 20. To the washed plate is added 150 μL of a substrate buffer composed of citric acid (25 mM) and sodium phosphate dibasic buffer (50 mM, pH 5.0) containing 0.06% hydrogen peroxide and 0.04% o-phenylenediamine hydrochloride.
(§3) Buffers and water without additives were filtered through millipore filters and kept for 1 week. BSA, antibodies, Tween™ 20 and horse radish peroxidase conjugates were added to these buffers and water just prior to use. Urine samples were usually collected 4 hours after drinking a cup of coffee (instant or brewed with approximately 100 mg of caffeine per cup) and stored at −80° C. They were diluted 10 times with sodium phosphate buffer (620 mosm, pH 7.50) and were subsequently diluted with water to give concentrations of AAMU and 1X no higher than 3×10^−6 M in the ELISA. All the pipettings were done with an eight-channel pipette, except those of the antibody and sample solutions. Starting with the last well, 100 μL of a carbonate buffer (100 mM, pH 9.6) containing 2.5 μg mL^−1 antibodies was pipetted. After 90 min. at room temperature, the wells were washed three times with 100 μL of TPB: isotonic sodium phosphate buffer (310 mosm, pH 7.50) containing 0.05% Tween™ 20.
(§4) After the initial wash, unoccupied sites were blocked by incubation for 90 min. at room temperature with 100 μL TBP containing 3% BSA. The wells were washed four times with 100 μL TPB. […] The microplate was gently shaken with an orbital shaker at room temperature for 3-4 hours. The wells were washed three times with 100 μL with TPB containing 1% BSA and three times with water containing 0.05% Tween™ 20. To the washed plate was added 150 μL of a substrate buffer composed of citric acid (25 mM) and sodium phosphate dibasic buffer (50 mM, pH 5.0) containing 0.06% hydrogen peroxide and 0.04% o-phenylenediamine hydrochloride. After 20 min. at room temperature with shaking, the reaction was stopped with 50 μL of 2.5 N HCl.
(§5) The cross reactivities of AAMU-Ab and 1X-Ab were tested using a wide variety of caffeine metabolites and structural analogs (Table 3 below).

AAMU-Ab = test: Competitive antigen ELISA, cross-reactivity of AAMU-Ab; format: binding, rabbit; settings: 0 = absence of inhibition or inhibition no higher than 40% at 5 × 10^−3 M
Protocol: as §1, §2, §3, §4, §5

[4] = co-administration with ritonavir; cited from earlier work
[5] = cited from earlier work

## CC(C)c1nc(CN(C)C(=O)N[C@H](C(=O)N[C@@H](Cc2ccccc2)C[C@H](O)[C@H](Cc2ccccc2)NC(=O)OCc2cncs2)C(C)C)cs1 (relative stereo) [ritonavir, 10-Hydroxy-2-methyl-5-(1-methylethyl)-1-[2-(1-methylethyl)-4-thiazolyl]-3,6-dioxo-8,11-bis(phenylmethyl)-2,4,7,12-tetraazatridecan-13-oic acid, 5-thiazolylmethyl ester, [5S-(5R*,8R*,10R*,11R*)]]
HIV-1; MT 4 cells, with either zidovudine (ZDV) or didanosine (ddI)
  effect against HIV-1 in combination: additive effects
HIV-1; read-out: average EC50, low passage clinical isolates (n=13)
  EC50: 22 nM
[1]
  Adverse event: Depression: 1.7%
  Adverse event: Fecal Incontinence: 0.0%
  Adverse event: Vasodilation: 1.7%
[2]; HIV-infected individuals ages 2 to 14 years
  steady-state oral clearance (CL/F/m^2), pediatric vs adult: approximately 1.5 times
[2]; in vivo, po
  dose excreted in the feces: 86.4±2.9 % of the dose
  dose excreted in the feces as unchanged parent drug: 33.8±10.8 % of the dose
  dose excreted into the urine: 11.3±2.8 % of the dose
  dose excreted into the urine as unchanged parent drug: 3.5±1.8 % of the dose
  effect of dilution of oral solution on extent and rate of absorption: did not significantly affect
[2]; in vivo
  renal clearance: negligible
[2]; oral solution (n=18)
  AUC (mean±SD): 129.0 ± 39.3 µg·h/mL
[2]; soft gelatin capsule (n=57)
  AUC (mean±SD): 121.7 ± 53.8 µg·h/mL
[3]
  Adverse event: Depression: 1.7%
  Adverse event: Diarrhea: 15.4%
  Adverse event: Fecal Incontinence: 0.0%
  Adverse event: Vasodilation: 1.7%
HIV isolates; one ZDV-resistant HIV isolate in vitro
  susceptibility of ZDV-resistant HIV isolate: retained full susceptibility
HIV; double-blind phase of Study 247, 600 mg b.i.d.
  cumulative incidence of clinical disease progression or death: 26%
HIV; through end of open-label follow-up phase, Study 247
  cumulative mortality: 18%

## Cn1c(=O)c2c(ncn2C)n(C)c1=O [1,3,7-Trimethyl Xanthine (Caffeine), 1,3,7-Trimethyl Xanthine]
1X-Ab
  % Cross-Reaction 1X-Ab: 0%
AAMU-Ab
  % Cross-Reaction AAMU-Ab: 0%

## Cn1c(=O)c2[nH]cnc2n(C)c1=O [1,3-Dimethyl Xanthine (Theophylline), 1,3-Dimethyl Xanthine]
[4]
  Effect (on drug concentration): down theophylline
1X-Ab
  % Cross-Reaction 1X-Ab: 0.2%
AAMU-Ab
  % Cross-Reaction AAMU-Ab: 0%

## Cn1c(=O)[nH]c2ncn(C)c2c1=O [1,7-Dimethyl Xanthine (Paraxanthine), 1,7-Dimethyl Xanthine]
1X-Ab
  % Cross-Reaction 1X-Ab: 0.5%
AAMU-Ab
  % Cross-Reaction AAMU-Ab: 0%

## Cn1c(=O)[nH]c2[nH]c(=O)n(C)c2c1=O [1,7-Dimethyluric acid]
1X-Ab
  % Cross-Reaction 1X-Ab: 0%
AAMU-Ab
  % Cross-Reaction AAMU-Ab: 0%

## Cn1c(=O)[nH]c2nc[nH]c2c1=O [1-Methyl Xanthine (1X), 1-Methyl Xanthine]
1X-Ab
  % Cross-Reaction 1X-Ab: 100%
AAMU-Ab
  % Cross-Reaction AAMU-Ab: 0%

## Cn1c(=O)[nH]c2[nH]c(=O)[nH]c2c1=O [1-Methyluric acid]
1X-Ab
  % Cross-Reaction 1X-Ab: 11%
AAMU-Ab
  % Cross-Reaction AAMU-Ab: 0%

## Cn1cnc2c1c(=O)[nH]c(=O)n2C [3,7-Dimethyl Xanthine (Theobromine), 3,7-Dimethyl Xanthine]
1X-Ab
  % Cross-Reaction 1X-Ab: 0%
AAMU-Ab
  % Cross-Reaction AAMU-Ab: 0%

## Cn1c(=O)[nH]c(=O)c2[nH]cnc21 [3-Methyl Xanthine]
1X-Ab
  % Cross-Reaction 1X-Ab: 0%
AAMU-Ab
  % Cross-Reaction AAMU-Ab: 0%

## CC(=O)Nc1c(N)n(C)c(=O)n(C)c1=O [5-Acetamino-6-amino-1,3-dimethyluracil]
1X-Ab
  % Cross-Reaction 1X-Ab: 0%
AAMU-Ab
  % Cross-Reaction AAMU-Ab: 0%

## CC(=O)Nc1c(N)n(C)c(=O)[nH]c1=O [5-Acetamino-6-amino-1-methyluracil]
1X-Ab
  % Cross-Reaction 1X-Ab: 0%
AAMU-Ab
  % Cross-Reaction AAMU-Ab: 100%

## CC(=O)Nc1c(N)[nH]c(=O)[nH]c1=O [5-Acetamino-6-amino-uracil]
1X-Ab
  % Cross-Reaction 1X-Ab: 0%
AAMU-Ab
  % Cross-Reaction AAMU-Ab: 0.6%

## Cn1cnc2[nH]c(=O)[nH]c(=O)c21 [7-Methyl Xanthine]
1X-Ab
  % Cross-Reaction 1X-Ab: 0%
AAMU-Ab
  % Cross-Reaction AAMU-Ab: 0%

## Cc1nc2[nH]c(=O)[nH]c(=O)c2[nH]1 [8-Methyl Xanthine]
1X-Ab
  % Cross-Reaction 1X-Ab: 0%
AAMU-Ab
  % Cross-Reaction AAMU-Ab: 0%

## CC(C)[C@H](NC(=O)N(C)Cc1csc(C(C)(C)O)n1)C(=O)N[C@@H](Cc1ccccc1)C[C@H](O)[C@H](Cc1ccccc1)NC(=O)OCc1cncs1 [Compound M-2]
[2]; in vivo
  concentrations of metabolite in plasma: low

## COc1ccc2c(c1)[C@]13CCCC[C@@H]1[C@H](C2)N(C)CC3 [Dextromethorphan]
[5]; EMs (extensive metabolizers)
  mean performance+/−SE: 95+/−0.5%
[5]; PMs (poor metabolizers)
  mean performance+/−SE: 86+/−6%

## Nc1nc2nc[nH]c2c(=O)[nH]1 [Guanine]
1X-Ab
  % Cross-Reaction 1X-Ab: 0%
AAMU-Ab
  % Cross-Reaction AAMU-Ab: 0%

## O=c1[nH]cnc2nc[nH]c12 [Hypoxanthine]
1X-Ab
  % Cross-Reaction 1X-Ab: 0%
AAMU-Ab
  % Cross-Reaction AAMU-Ab: 0%

## CC(C)(C)NC(=O)[C@@H]1CN(Cc2cccnc2)CCN1C[C@@H](O)C[C@@H](Cc1ccccc1)C(=O)N[C@H]1c2ccccc2C[C@H]1O [Indinavir, indinavir]
HIV isolates
  decrease in susceptibility in vitro: 8 fold

## CC(=O)N1CCN(c2ccc(OCC3COC(Cn4ccnc4)(c4ccc(Cl)cc4Cl)O3)cc2)CC1 (centres unmarked) [Ketoconazole]
[4]
  Effect (on drug concentration): up ketoconazole

## CCOC(=O)C1(c2ccccc2)CCN(C)CC1 [Meperidine]
[4]
  Effect (on drug concentration): down meperidine

## CCC(=O)C(CC(C)N(C)C)(c1ccccc1)c1ccccc1 (centres unmarked) [Methadone]
[4]
  Effect (on drug concentration): down methadone

## CC(C)(C)NC(=O)[C@@H]1C[C@@H]2CCCC[C@@H]2CN1C[C@@H](O)[C@H](Cc1ccccc1)NC(=O)[C@H](CC(N)=O)NC(=O)c1ccc2ccccc2n1 [Saquinavir, saquinavir]
HIV isolates
  decrease in susceptibility in vitro: did not demonstrate a concordant decrease in susceptibility

## O=c1cc[nH]c(=O)[nH]1 [Uracil]
1X-Ab
  % Cross-Reaction 1X-Ab: 0%
AAMU-Ab
  % Cross-Reaction AAMU-Ab: 0%

## O=c1[nH]c(=O)c2[nH]c(=O)[nH]c2[nH]1 [Uric acid]
1X-Ab
  % Cross-Reaction 1X-Ab: 0%
AAMU-Ab
  % Cross-Reaction AAMU-Ab: 0%

## O=c1[nH]c(=O)c2[nH]cnc2[nH]1 [Xanthine]
1X-Ab
  % Cross-Reaction 1X-Ab: 0%
AAMU-Ab
  % Cross-Reaction AAMU-Ab: 0^a %

## CC(C)CN(C[C@@H](O)[C@H](Cc1ccccc1)NC(=O)O[C@H]1CCOC1)S(=O)(=O)c1ccc(N)cc1 [amprenavir]
HIV isolates
  decrease in susceptibility in vitro: none

## CCOC(=O)C1(c2ccccc2)CCNCC1 [normeperidine]
[4]
  Effect (on drug concentration): up normeperidine
